Reference: PMC10615883 (Angewandte Chemie (International ed. in English), 2023)

Target: Aβ40 aggregates (amyloid beta) (Homo sapiens, UniProt P05067)
Assay: fluorescence titration with Aβ aggregates
Assay type: binding

Chain of Aβ40 aggregates (amyloid beta) (P05067 672-711 limits assumed): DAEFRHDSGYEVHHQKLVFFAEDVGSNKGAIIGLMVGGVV

Kd: 2.89 ± 0.43 µM
Substance: CRANAD-147
